# Results reported in patent publication US7709460B2, “Method for treating or preventing a functional vitamin B12 deficiency in an individual and medical compositions for use in said method” (Cobalz Limited, priority 2001, dated 2010).
# Tests used:
# [1] = system: cob(III)alamin reductase (CR); conditions: literature study (reference 15); cited from earlier work
# [2] = system: patients with a functional Vitamin B12 deficiency and suffering from a neuropsychiatric abnormality; assay: Mini-Mental State Examination (MMSE) in treated patients; assay type: in vivo, human
# Procedure: (§1) Cognitive scores (Mini Metal State Examination (MMSE) and the cognitive component of the Alzheimer Disease Assessment Scale (ADAS-Cog)) were recorded for cases and controls (16, 17).
# (§2) The effect of generating a cobalt-sulphur bond by the co-administration of hydroxocobalamin and a glutathione precursor (N-acetyl cysteine or α-lipoic acid) on the symptoms of seven patients suffering from neuropsychiatric abnormalities was investigated.
# [3] = side effects reported by patients; assay type: in vivo, human
# [4] = system: patients with a functional Vitamin B12 deficiency and suffering from a neuropsychiatric abnormality; assay: cognitive component of the Alzheimer Disease Assessment Scale (ADAS-Cog) in treated patients; assay type: in vivo, human
# Procedure: as §1, §2
# [5] = system: patients with a functional Vitamin B12 deficiency and suffering from a neuropsychiatric abnormality; assay: clinical observation of symptoms and behaviour in case reports (Example 2); assay type: in vivo, human
# Excerpt: as §2
# [6] = serum homocysteine level under treatment; assay type: in vivo, human; conditions: Patient 4; monthly hydroxocobalamin plus oral folate, 1999; 23.7 μmol/l before treatment
# [7] = Patient 1, N-acetyl cysteine 600 mg daily added to monthly hydroxocobalamin, two weeks
# [8] = Patient 4, N-acetylcysteine 600 mg daily added to B-vitamin supplementation
# [9] = Patient 7, 600 mg NAC daily added to hydroxocobalamin and folate, one month
# [10] = Patient 4, monthly hydroxocobalamin plus oral folate, 1999
compound,measurement,setting,value
"C/C1=C2/[N-][C@H]([C@H](CC(N)=O)[C@@]2(C)CCC(=O)NC[C@@H](C)OP(=O)([O-])O[C@H]2[C@@H](O)[C@@H](n3cnc4cc(C)c(C)cc43)O[C@@H]2CO)[C@]2(C)N=C(/C(C)=C3N=C(/C=C4N=C1[C@@H](CCC(N)=O)C\4(C)C)[C@@H](CCC(N)=O)[C@]\3(C)CC(N)=O)[C@@H](CCC(N)=O)[C@]2(C)CC(N)=O.[CH2-][C@H]1O[C@@H](n2cnc3c(N)ncnc32)[C@H](O)[C@@H]1O.[Co] [Ado-Cbl, adenosyl cobalamin]",use as substrate / reductase activity,[1],Little or no reductase activity
CC(=O)N[C@@H](CS)C(=O)O [N-acetyl cysteine],MMSE score,[2]; [7],21/30
same,MMSE score,"[2]; Patient 2, oral N-acetylcysteine 600 mg added to hydroxocobalamin, one month",25/30
same,cognitive score,[2]; [8],no improvement in their cognitive score
same,side effects,"[3]; Patient 5, oral N-Acetylcysteine 400 mg daily",some gastroenteric side effects
same,side effects,"[3]; Patient 6, NAC, limited them to 100 mg daily",gastro intestinal side effects
same,improvement on the ADAS-Cog score,"[4]; Patient 1, N-acetyl cysteine 600 mg daily added to hydroxocobalamin, two weeks vs before",eight
same,ADAS-Cog score,[4]; [7],20/70
same,further change on the ADAS-Cog score,"[4]; Patient 1, N-acetyl cysteine added to hydroxocobalamin, four-week assessment",gained an additional point
same,points gained on ADAS-Cog score,[4]; [9],6 points
same,clinical response (husband's report),"[5]; Patient 1, N-acetyl cysteine 600 mg daily added to hydroxocobalamin, two weeks",some noticeable improvement in their memory
same,clinical response (family and nursing staff),"[5]; Patient 3, severe dementia, oral N-acetyl cysteine 600 mg daily added to hydroxocobalamin",significant improvement in their condition
same,clinical response (behaviour),[5]; [8],their behaviour was considerably improved
same,frequency of vitamin B12 injections needed,"[5]; Patient 5, N-Acetylcysteine 400 mg daily, after three months, three times weekly before",once weekly
same,clinical response,"[5]; Patient 5, oral N-Acetylcysteine 400 mg daily added to vitamin B12 regime, after a month",more lively and with less headaches
same,clinical response,"[5]; Patient 6, NAC 100 mg daily added to 1 mg oral cobalamin and 5 mg folic acid daily, 4 months",definitely improved
same,clinical response (staff comment),[5]; [9],"less agitated, and more contented"
Nc1nc2ncc(CNc3ccc(C(=O)N[C@@H](CCC(=O)O)C(=O)O)cc3)nc2c(=O)[nH]1 [folic acid],clinical response,"[5]; Patient 2, age-associated memory impairment, folic acid supplements for some months",no significant change in their symptoms
C/C1=C2/[N-][C@H]([C@H](CC(N)=O)[C@@]2(C)CCC(=O)NC[C@@H](C)OP(=O)([O-])O[C@H]2[C@@H](O)[C@@H](n3cnc4cc(C)c(C)cc43)O[C@@H]2CO)[C@]2(C)N=C(/C(C)=C3N=C(/C=C4N=C1[C@@H](CCC(N)=O)C\4(C)C)[C@@H](CCC(N)=O)[C@]\3(C)CC(N)=O)[C@@H](CCC(N)=O)[C@]2(C)CC(N)=O.[Co+3].[OH-] [hydroxocobalamin],MMSE score,"[2]; Patient 1, regular monthly hydroxocobalamin injections alone, February 2001, before N-acetyl cysteine",18/30
same,MMSE score,"[2]; Patient 2, monthly hydroxocobalamin, after 6 months",21/30
same,MMSE score,"[2]; Patient 3, on monthly hydroxocobalamin, cognitive review in 1997",13/30
same,MMSE score,[2]; [10],5/30
same,ADAS-Cog score,"[4]; Patient 1, regular monthly hydroxocobalamin alone, February 2001",28/70
same,ADAS-Cog score,[4]; [10],70
same,ADAS-Cog score,"[4]; Patient 7, weekly hydroxocobalamin with oral folate, before NAC",68
same,clinical response,"[5]; Patient 1, monthly injections of hydroxocobalamin, from 1994",neuropsychiatric symptoms were initially much improved
same,clinical response (husband's report),"[5]; Patient 2, monthly injections of hydroxocobalamin",no significant change in their condition
same,clinical response,"[5]; Patient 3, probable Alzheimer-type dementia, monthly hydroxocobalamin, ensuing 2 years",their mental condition continued to deteriorate
same,clinical response,"[5]; Patient 4, probable Alzheimer-type dementia, monthly hydroxocobalamin plus folic acid 5 mg daily",their cognitive function continued to slowly deteriorate
same,cognitive function,"[5]; Patient 7, vascular dementia, weekly hydroxocobalamin injections with oral folate supplement",no significant improvement in their cognitive function
same,serum homocysteine level,[6],5.7 µmol/L
C/C1=C2/[N-][C@H]([C@H](CC(N)=O)[C@@]2(C)CCC(=O)NC[C@H](C)OP(=O)([O-])O[C@H]2[C@@H](O)[C@@H](n3cnc4cc(C)c(C)cc43)O[C@@H]2CO)[C@]2(C)N=C(/C(C)=C3N=C(/C=C4N=C1[C@@H](CCC(N)=O)C\4(C)C)[C@@H](CCC(N)=O)[C@]\3(C)CC(N)=O)[C@@H](CCC(N)=O)[C@]2(C)CC(N)=O.[CH3-].[Co+3] [methylcobalamin],clinical response,"[5]; Patient 5, Chronic Fatigue Syndrome, subcutaneous methylcobalamin twice weekly",clear improvement after only their third injection
same,clinical condition on withdrawal of injections,"[5]; Patient 5, methylcobalamin injections withdrawn in 1994",marked deterioration in relation to the withdrawal of these injections
same,use as substrate / reductase activity,[1],Little or no reductase activity
O=C(O)CCCCC1CCSS1 (stereo not drawn) [α-lipoic acid],clinical response,"[5]; Patient 4, changed from N-acetylcysteine to α-lipoic acid 50 mg twice daily, with B vitamins",clinical improvement was maintained one year later
cyanocobalamin [CN-Cbl],use as substrate / reductase activity,[1],Little or no reductase activity
vitamin B12,clinical response,"[5]; Patient 6, presumed multiple sclerosis, regular injections of vitamin B12",very apparent improvement in their symptoms
